Laboratory results: patent US5609897A, “Powdered beverage concentrate or additive fortified with calcium and vitamin D” (priority 1995, dated 1997)
Structures can show the parent of a compound that is named as a salt. Where two headings read alike, the source gives them in different places. Each block holds one compound with its values, some of them ahead of it.

Key:
[1] = humans; cited from earlier work
[2] = cited from earlier work
[3] = rats, 3 weeks, right femur calcium, as compared to a control; cited from earlier work
[4] = without aluminum-containing drugs, normal kidneys; cited from earlier work
[5] = pH 3.5
Procedure: In this evaluation solubility was determined by a visual examination.

[6] = test system: yeasts and molds; conditions: pH 4.5 to 3.0; cited from earlier work
[7] = Titratable acidity of calcium sources; type: physicochemical; conditions: from pH 3.5 to pH 8.3, 40 g sample
Text: Acidity is desired in the liquid nutritional product of the present invention for several reasons such as: to maintain the calcium salt solubility, to complement flavor, to control microbial growth, and to enhance the role of preservatives, specifically potassium benzoate or sodium benzoate. On the other hand, too much acidity can result in increased tartness and sourness that make the product undesirable from a sensory point of view. […] Titratable acidity is an indication of the total acidity of a beverage.

[8] = low birth weight infants; cited from earlier work
[9] = piglets; cited from earlier work
[10] = cited from earlier work; remark: listed apart in the source

Compound: O=C(O)O [Calcium Carbonate, calcium carbonate]
Calcium absorption [1]: 29.6%
adverse effects of large amounts [2]: constipation and abdominal distention

Compound: O=C(O)CC(O)(CC(=O)O)C(=O)O [Calcium Citrate, calcium citrate]
Relative calcium bioavailability [3]: 110%
Risk of aluminum toxicity [4]: does not pose a risk of aluminum toxicity

Solubility [5]: soluble
Compound: O=C(O)[C@H](O)[C@@H](O)[C@H](O)[C@H](O)CO [D-Gluconic-Acid, D-gluconic acid (hemicalcium salt)]
Solubility over one month [5]: remained soluble at pH 3.5 for at least one month

Compound: O=P([O-])([O-])[O-].O=P([O-])([O-])[O-].[Ca+2].[Ca+2].[Ca+2] [Tricalcium Phosphate, tricalcium phosphate]
Relative calcium bioavailability [3]: 110%

Compound: O=C(O)c1ccccc1 [benzoic acid]
preservative effect on reducing pH from 4.5 to 3.0 [6]: increased by nearly three times

Compound: Calcium Citrate Malate
Titratable acidity [7]: 53.2 mL of 0.1N NaOH
Calcium absorption [1]: 38.3%

Titratable acidity [7]: 43.5 mL of 0.1N NaOH
Compound: Calcium Glycerophosphate [CaGP]
Efficacy as source of calcium in TPN [8]: as effective as calcium gluconate
Efficacy as source of calcium in TPN [9]: as effective as calcium gluconate

Compound: vitamin D
calcium balance and fracture risk ([10]; 600-800 IU/day): improve calcium balance and reduce fracture risk
risks of excessive doses ([10]; excessive doses): hypercalciuria and hypercalcemia
